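Growth conditions: 96-well plates. Treatment: test compound, 48 hours, 5 concentrations. Analysis: linear interpolation between bracketing concentrations; unreached endpoints set to highest concentration. TGI: total growth inhibition.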
How the values were obtained:
Assay in all cases: NCI anticancer screen, dose series, 48 h
[1] = system: BT-549 breast
[2] = system: CAKI-1 renal
[3] = system: DU-145 prostate
[4] = system: HOP-92 NSCLC
[5] = system: K-562 leukemia
[6] = system: MOLT-4 leukemia
[7] = system: NCI-H23 lung
[8] = system: OVCAR-3 ovarian
[9] = system: OVCAR-5 ovarian
[10] = system: SNB-19 CNS
[11] = system: SR leukemia

| Structure (SMILES) | TGI [1] [µM] | TGI [2] [µM] | TGI [3] [µM] | TGI [4] [µM] | TGI [5] [µM] | TGI [6] [µM] | TGI [7] [µM] | TGI [8] [µM] | TGI [9] [µM] | TGI [10] [µM] | TGI [11] [µM] |
| --- | --- | --- | --- | --- | --- | --- | --- | --- | --- | --- | --- |
| COC(=O)C[C@H](CCSC)NC(=O)C[C@H](CCSC)NC(=O)C[C@H](CCSC)NC(=O)OC(C)(C)C | > 100 | > 100 | > 100 | 36.9 | > 100 | > 100 | > 100 | 48 | > 100 | 51.5 | > 100 |
| Cc1cccc(C(O)c2cccnc2)c1O (stereo unspecified) | > 100 | > 100 | > 100 | – | > 100 | > 100 | > 100 | > 100 | > 100 | > 100 | > 100 |
| O=C(Nc1nc(C23CC4CC(CC(C4)C2)C3)cs1)c1cc2cc([N+](=O)[O-])ccc2oc1=O | 40.4 | > 100 | > 100 | > 100 | > 100 | > 100 | > 100 | > 100 | > 100 | > 100 | > 100 |
| C=C1C(=O)O[C@H]2[C@H]([C@H](C)CCCC(C)=O)O[C@H]([C@@]3(C)CCC(=O)O3)C[C@@H]12 | > 100 | 54.3 | > 100 | > 100 | > 100 | > 100 | > 100 | > 100 | > 100 | > 100 | > 100 |
| CCOC(=O)N1C(=S)C(C(=O)OC)(C(=O)OC)N=C1C | > 100 | > 100 | > 100 | > 100 | > 100 | > 100 | > 100 | > 100 | > 100 | > 100 | > 100 |
| CSc1ccccc1P(CCP(c1ccccc1SC)c1ccccc1SC)c1ccccc1SC | > 100 | > 100 | > 100 | > 100 | > 100 | > 100 | > 38.1 | > 33.5 | > 100 | > 100 | > 42.6 |
| COc1ccc(C2NC(=O)Nc3c2c(=O)oc2c3ccc3ccccc32)cc1 (stereo unspecified) | > 100 | > 100 | > 100 | > 100 | > 100 | > 100 | > 100 | > 100 | > 100 | > 100 | > 100 |
